Results: publication PMC10180076, “Novel Biologically Active N-Substituted Benzimidazole Derived Schiff Bases: Design, Synthesis, and Biological Evaluation” (Molecules, 2023)
Read-outs that look alike come from different tables or passages of the source.

How the values were obtained:
LN-229, glioblastoma = test: Proliferation assay (MTS, 72 h), LN-229; assay type: cell-based, human
Text: (§1) Human cancer cells used in this manuscript, namely Capan-1, HCT-116, NCI-H460, LN-229, HL-60, K-562, and Z-138, were acquired from the American Type Culture Collection (ATCC, Manassas, VA, USA), while the DND-41 cell line was purchased from the Deutsche Sammlung von Mikroorganismen und Zellkulturen (DSMZ Leibniz-Institut, Braunschweig, Germany). Culture media were purchased from Gibco Life Technologies, Merelbeke, Belgium, and supplemented with 10% fetal bovine serum (HyClone, Cytiva, Marlborough, MA, USA). Vincristine and docetaxel, which were used as the reference inhibitors, were purchased from Selleckchem (Munich, Germany). Stock solutions were prepared in DMSO.
(§2) Adherent cell lines LN-229, HCT-116, and NCI-H460 and Capan-1 cells were seeded at a density between 500 and 1500 cells per well, in 384-well tissue culture plates (Greiner, Kremsmünster, Austria). After overnight incubation, the cells were treated with seven different concentrations of the test compounds, ranging from 100 to 0.006 µM.
(§3) Suspension cell lines HL-60, K-562, Z-138, and DND-41 were seeded at densities ranging from 2500 to 5500 cells per well in 384-well culture plates containing the test compounds at the same concentration points. The cells were incubated for 72 h with the compounds and were then analyzed using the CellTiter 96® AQueous One Solution Cell Proliferation Assay (MTS) reagent (Promega, Madison, WI, USA) according to the manufacturer’s instructions. […] The compounds were tested in two independent experiments.

[1] = test system: Capan-1, pancreatic adenocarcinoma; test: Proliferation assay (MTS, 72 h), Capan-1; assay type: cell-based, human
Text: as §1, §2, §3

[2] = test system: HCT-116, colorectal carcinoma; test: Proliferation assay (MTS, 72 h), HCT-116; assay type: cell-based, human
Text: as §1, §2, §3

NCI-H460, lung carcinoma = test: Proliferation assay (MTS, 72 h), NCI-H460; assay type: cell-based, human
Text: as §1, §2, §3

[3] = test system: DND-41, acute lymphoblastic leukemia; test: Proliferation assay (MTS, 72 h), DND-41; assay type: cell-based, human
Text: as §1, §2, §3

[4] = test system: HL-60, acute myeloid leukemia; test: Proliferation assay (MTS, 72 h), HL-60; assay type: cell-based, human
Text: as §1, §2, §3

[5] = test system: K-562, chronic myeloid leukemia; test: Proliferation assay (MTS, 72 h), K-562; assay type: cell-based, human
Text: as §1, §2, §3

[6] = test system: Z-138, non-Hodgkin lymphoma; test: Proliferation assay (MTS, 72 h), Z-138; assay type: cell-based, human
Text: as §1, §2, §3

[7] = test system: human coronavirus HCoV-229E; test: organism not typed; assay type: cell-based; conditions: HEL 299 cells, 100 CCID50, MTS; read-out: Antiviral Activity (EC50/μM) HCoV 229E HEL 299
[8] = test system: human coronavirus HCoV-OC43; test: microbe, parasite or virus in culture; assay type: cell-based; conditions: Betacoronavirus 1, OC43; HEL 299 cells, 100 CCID50, MTS; read-out: Antiviral Activity (EC50/μM) HCoV OC43 HEL 299
[9] = test system: human coronavirus HCoV-NL63; test: Antiviral CPE reduction assay, HCoV-NL63 in Huh-7; assay type: cell-based; conditions: Huh-7 cells, 100 CCID50, MTS
[10] = test system: respiratory syncytial virus A (Long); test: Antiviral CPE reduction assay, RSV A in HEL 299; assay type: cell-based; conditions: human respiratory syncytial virus; HEL 299 cells, 100 CCID50, MTS
[11] = test system: yellow fever virus (YFV 17D); test: microbe, parasite or virus in culture; assay type: cell-based; conditions: Huh-7, read-out: Antiviral Activity (EC50/μM) YFV 17D Huh-7
Zika virus (Mr776) = test: Antiviral CPE reduction assay, Zika virus in Huh-7; assay type: cell-based; conditions: Huh-7 cells, 100 CCID50, MTS
sindbis virus = test: Antiviral CPE reduction assay, Sindbis virus in Huh-7; assay type: cell-based; conditions: Huh-7 cells, 100 CCID50, MTS
in vitro [12] = conditions: human
in vitro [13] = conditions: human; remark: listed apart in the source
[14] = test system: influenza A/H1N1 (A/Ned/378/05); test: Antiviral CPE reduction assay, influenza A/H1N1 in MDCK; assay type: cell-based; conditions: Influenza A virus, MDCK cells, 100 CCID50, MTS
[15] = test system: influenza A/H3N2 (A/HK/7/87); test: Antiviral CPE reduction assay, influenza A/H3N2 in MDCK; assay type: cell-based; conditions: Influenza A virus, MDCK cells, 100 CCID50, MTS
[16] = test system: influenza B (B/Ned/537/05); test: Antiviral CPE reduction assay, influenza B in MDCK; assay type: cell-based; conditions: Influenza B virus; MDCK cells, 100 CCID50, MTS
in vitro [17] = conditions: dog
[18] = test system: herpes simplex virus-1 (HSV-1 KOS); test: Antiviral CPE reduction assay, HSV-1 KOS in HEL 299; assay type: cell-based; conditions: Human alphaherpesvirus 1; HEL 299 cells, 100 CCID50, MTS

Compound | IC50 (LN-229, glioblastoma; Homo sapiens, LN-229) [µM] | IC50 ([1]; Homo sapiens, CAPAN-1) [µM] | IC50 ([2]; Homo sapiens, HCT-116) [µM] | IC50 (NCI-H460, lung carcinoma; Homo sapiens, NCI-H460) [µM] | IC50 ([3]; Homo sapiens, DND41) [µM] | IC50 ([4]; Homo sapiens, HL-60) [µM] | IC50 ([5]; Homo sapiens, K562) [µM] | IC50 ([6]; Homo sapiens, Z-138) [µM] | melting point [°C] | also measured
COC(=O)Nc1nc2ccc(C(=O)c3cccs3)cc2[nH]1 [NZO, nocodazole, reference compound] | 0.29 | 0.1 | 0.13 | 0.25 | 0.47 | 0.1 | 0.07 | 0.31 |  | 
CN(C)c1ccc(/C=N/c2nc3ccccc3n2C)cc1 [Compound 33, (E)-N,N-Dimethyl-4-(((1-methyl-1H-benzo[d]imidazol-2-yl)imino)methyl)aniline] | > 100 | > 100 | > 100 | > 100 | > 100 | > 100 | > 100 | > 100 | 186 to 188 | 
CCCCCCn1c(N)nc2ccc(C#N)cc21 [Compound 24, 2-Amino-6-cyano-1-hexylbenzimidazole] |  |  |  |  |  |  |  |  | 215 to 220 | 
CCC(CC)COC(=O)[C@H](C)N[P@](=O)(OC[C@H]1O[C@@](C#N)(c2ccc3c(N)ncnn23)[C@H](O)[C@@H]1O)Oc1ccccc1 [Remdesivir, remdesivir, reference compound] |  |  |  |  |  |  |  |  |  | EC50 [7]: 0.06 µM; EC50 [8]: 0.06 µM; EC50 [9]: 0.03 µM; EC50 [10]: 0.03 µM; EC50 [11]: 6.2 µM; EC50 (Zika virus (Mr776)): 0.7 µM; EC50 (sindbis virus): > 10 µM; CC50 (in vitro [12]): > 10 µM; CC50 (in vitro [13]): > 10 µM
CC(N)C12CC3CC(CC(C3)C1)C2 (stereo not shown) [Rimantadine, rimantadine, reference compound] |  |  |  |  |  |  |  |  |  | EC50 [14]: 5 µM; EC50 [15]: 0.05 µM; EC50 [16]: > 100 µM; CC50 (in vitro [17]): > 100 µM
Cn1c(N)nc2ccccc21 [Compound 18, 2-amino-1-methylbenzimidazole] |  |  |  |  |  |  |  |  |  | EC50 [7]: > 100 µM; EC50 [8]: > 100 µM; EC50 [9]: > 100 µM; EC50 [14]: > 100 µM; EC50 [15]: > 100 µM; EC50 [16]: > 100 µM; EC50 [10]: > 100 µM; EC50 [18]: > 100 µM; EC50 [11]: > 100 µM; EC50 (Zika virus (Mr776)): 43.1 µM; EC50 (sindbis virus): > 100 µM; CC50 (in vitro [12]): > 100 µM; CC50 (in vitro [13]): > 100 µM; CC50 (in vitro [17]): > 100 µM
CCN(CC)c1ccc(/C=N/c2nc3ccccc3n2CC(C)C)c(O)c1 [Compound 30, (E)-5-(Diethylamino)-2-(((1-isobutyl-1H-benzo[d]imidazol-2-yl)imino)methyl)phenol] | > 100 | > 100 | > 100 | > 100 | > 100 | 70.4 | > 100 | > 100 |  | 
2-amino-1-phenylbenzimidazole [Compound 19] |  |  |  |  |  |  |  |  |  | IC50 (LN-229, glioblastoma): > 100 µM; IC50 [1]: > 100 µM; IC50 [2]: > 100 µM; IC50 (NCI-H460, lung carcinoma): > 100 µM; IC50 [3]: 98.3 µM; IC50 [4]: > 100 µM; IC50 [5]: > 100 µM; IC50 [6]: > 100 µM
CC(C)Cn1c(/N=C/c2ccc(N(C)C)cc2)nc2ccccc21 [Compound 28, (E)-4-(((1-Isobutyl-1H-benzo[d]imidazol-2-yl)imino)methyl)-N,N-dimethylaniline] | > 100 | > 100 | 15.2 | > 100 | > 100 | > 100 | > 100 | > 100 | 277 to 279 | 
CN(C)c1ccc(/C=N/c2nc3ccc(C#N)cc3n2-c2ccccc2)cc1 [Compound 39, (E)-2-((4-(Dimethylamino)benzylidene)amino)-1-phenyl-1H-benzo[d]imidazole-6-carbonitrile] | > 100 | > 100 | > 100 | > 100 | > 100 | > 100 | > 100 | > 100 | 247 to 251 | 
